Common to all, as to experiment: cAMP activity assay in assay medium (assay 1)
What all share (type): cell-based
Holding throughout (conditions): Table 4

One experiment deals with Human GLP1R (Homo sapiens, UniProt P43220). Also noted: expressed in transfected cells. The source says: (§1) Biological Activity of Peptides in Cell-Based cAMP Activity Assay (Assay 1):
(§2) All sample dilutions were made in duplicate.

A further experiment concerns the target T1, Human GIPr (Homo sapiens, UniProt P48546).
T1 construct: expressed in transfected cells
T1 sequence (P48546 22-466): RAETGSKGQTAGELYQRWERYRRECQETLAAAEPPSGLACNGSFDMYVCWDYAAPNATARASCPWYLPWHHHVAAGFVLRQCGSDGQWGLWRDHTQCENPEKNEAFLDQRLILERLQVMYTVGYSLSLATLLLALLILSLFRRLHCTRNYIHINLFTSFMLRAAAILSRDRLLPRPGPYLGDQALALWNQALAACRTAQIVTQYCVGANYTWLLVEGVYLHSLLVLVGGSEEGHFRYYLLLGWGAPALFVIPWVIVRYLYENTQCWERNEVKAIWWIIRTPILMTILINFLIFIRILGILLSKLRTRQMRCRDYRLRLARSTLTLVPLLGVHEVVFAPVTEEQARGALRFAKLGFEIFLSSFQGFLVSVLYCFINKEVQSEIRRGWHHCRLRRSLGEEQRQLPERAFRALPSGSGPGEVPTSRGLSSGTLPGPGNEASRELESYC
Source text: as §1, §2

The target in the next experiment is T2, Human GlucR (Homo sapiens, UniProt P47871).
T2 construct: expressed in transfected cells
T2 sequence (P47871 26-477): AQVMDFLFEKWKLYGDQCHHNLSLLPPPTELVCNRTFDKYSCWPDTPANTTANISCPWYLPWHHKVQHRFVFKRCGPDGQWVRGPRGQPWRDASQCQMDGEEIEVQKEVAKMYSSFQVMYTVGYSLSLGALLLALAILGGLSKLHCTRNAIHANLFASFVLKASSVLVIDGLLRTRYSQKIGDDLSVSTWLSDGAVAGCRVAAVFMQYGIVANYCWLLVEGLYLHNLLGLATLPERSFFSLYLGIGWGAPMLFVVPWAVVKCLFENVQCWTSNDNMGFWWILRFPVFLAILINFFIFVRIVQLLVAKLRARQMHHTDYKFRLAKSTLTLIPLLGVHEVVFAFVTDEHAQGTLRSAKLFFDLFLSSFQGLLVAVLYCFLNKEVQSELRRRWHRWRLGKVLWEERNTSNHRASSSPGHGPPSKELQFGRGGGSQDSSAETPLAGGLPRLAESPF
Source text: as §1, §2

[1] abbreviates: assay medium, read-out: hGLP1R EC50.
[2] abbreviates: assay medium, read-out: hGIPR EC50.
[3] abbreviates: assay medium, read-out: hGlucR EC50.

The text below walks through data of US20200354426A1 (MEDIMMUNE LIMITED, priority 2016, published 2020).

Read-outs that look alike come from different tables or passages of the source. Numbered stars: 1 amine (or outer) side, 2 acyl side, 3 side chain; on linkers, the order of the positions; unused ones are H or OH. Side chains are listed from the residue outwards. Peptide text beside a SMILES is read from it. * marks the point of attachment. γGlu = O=C(O)[C@H](CCC(=O)[*:2])N[*:1]; Palmitoyl = CCCCCCCCCCCCCCCC(=O)*; Ahx = NCCCCCC(=O)O; βAla = NCCC(=O)O

Usually EC50 stands for the concentration that produces a half-maximal response.

Human GLP1R, sequence (P43220 24-463): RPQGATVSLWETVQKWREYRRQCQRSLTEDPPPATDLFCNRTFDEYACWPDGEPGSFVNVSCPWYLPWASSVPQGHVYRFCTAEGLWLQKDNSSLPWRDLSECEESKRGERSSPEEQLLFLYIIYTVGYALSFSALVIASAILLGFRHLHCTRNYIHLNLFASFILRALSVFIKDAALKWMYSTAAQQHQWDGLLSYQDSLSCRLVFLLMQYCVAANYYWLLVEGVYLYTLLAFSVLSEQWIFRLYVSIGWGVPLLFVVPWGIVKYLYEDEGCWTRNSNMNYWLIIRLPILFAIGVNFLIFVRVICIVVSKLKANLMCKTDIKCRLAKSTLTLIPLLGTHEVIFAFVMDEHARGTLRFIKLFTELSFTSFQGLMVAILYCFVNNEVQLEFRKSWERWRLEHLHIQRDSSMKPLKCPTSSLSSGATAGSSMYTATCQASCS

For the compound `CCCCCCCCCCCCCCCC(=O)N[C@@H](CCC(=O)NCCCC[C@H](NC(=O)[C@H](Cc1ccc(O)cc1)NC(=O)[C@H](CCCCN)NC(=O)[C@H](CO)NC(=O)[C@H](Cc1ccc(O)cc1)NC(=O)[C@H](CC(=O)O)NC(=O)[C@H](CO)NC(=O)[C@@H](NC(=O)[C@H](Cc1ccccc1)NC(=O)[C@@H](NC(=O)CNC(=O)[C@H](CCC(=O)O)NC(=O)CNC(=O)[C@@H](N)Cc1c[nH]cn1)[C@@H](C)O)[C@@H](C)O)C(=O)N[C@@H](CC(=O)O)C(=O)N[C@@H](CO)C(=O)N[C@@H](CCCNC(=N)N)C(=O)N[C@@H](CCCNC(=N)N)C(=O)N[C@@H](C)C(=O)N[C@@H](CCC(N)=O)C(=O)N[C@@H](CC(=O)O)C(=O)N[C@@H](Cc1ccccc1)C(=O)N[C@H](C(=O)N[C@@H](CCC(N)=O)C(=O)N[C@@H](Cc1c[nH]c2ccccc12)C(=O)N[C@@H](CC(C)C)C(=O)N[C@H](C(=O)N[C@@H](C)C(=O)NCC(=O)NCC(N)=O)C(C)C)C(C)C)C(=O)O` [g733] (H-HGEGTFTSDYSKYK([γGlu-Palmitoyl])DSRRAQDFVQWLVAGG-NH2), the EC50 is 0.0231 nM on Human GLP1R (hGLP1R EC50, assay medium); 817 nM at Human GIPr (hGIPR EC50, assay medium); 62 nM on Human GlucR (hGlucR EC50, assay medium).

For the compound `CCCCCCCCCCCCCCCC(=O)NCCC(=O)NCCCC[C@H](NC(=O)[C@H](CO)NC(=O)[C@H](CC(=O)O)NC(=O)[C@H](CC(C)C)NC(=O)[C@H](Cc1ccc(O)cc1)NC(=O)[C@H](CCC(=O)O)NC(=O)[C@H](CO)NC(=O)[C@H](Cc1ccc(O)cc1)NC(=O)[C@H](CC(=O)O)NC(=O)[C@H](CO)NC(=O)[C@@H](NC(=O)[C@H](Cc1ccccc1)NC(=O)[C@@H](NC(=O)CNC(=O)[C@H](CCC(=O)O)NC(=O)[C@H](CO)NC(=O)[C@@H](N)Cc1c[nH]cn1)[C@@H](C)O)[C@@H](C)O)C(=O)N[C@@H](CCCNC(=N)N)C(=O)N[C@@H](C)C(=O)N[C@@H](CCCNC(=N)N)C(=O)N[C@@H](CC(=O)O)C(=O)N[C@@H](Cc1ccccc1)C(=O)N[C@H](C(=O)N[C@@H](C)C(=O)N[C@@H](Cc1c[nH]c2ccccc12)C(=O)N[C@@H](CC(C)C)C(=O)N[C@@H](CCC(=O)O)C(=O)N[C@@H](C)C(=O)NCC(=O)NCC(N)=O)C(C)C` [g734] (H-HSEGTFTSDYSEYLDSK([βAla-Palmitoyl])RARDFVAWLEAGG-NH2; N-terminus assumed), the EC50 is 0.0695 nM on Human GLP1R (setting [1]), 1170 nM on Human GIPr (setting [2]) and 82.8 nM at Human GlucR (setting [3]).

For the compound `CCCCCCCCCCCCCCCC(=O)N[C@@H](CCC(=O)NCCCC[C@H](NC(=O)CNC(=O)CNC(=O)[C@H](C)NC(=O)[C@H](CCC(=O)O)NC(=O)[C@H](CC(C)C)NC(=O)[C@H](Cc1c[nH]c2ccccc12)NC(=O)[C@H](CCC(N)=O)NC(=O)[C@@H](NC(=O)[C@H](Cc1ccccc1)NC(=O)[C@H](CC(=O)O)NC(=O)[C@H](CCC(N)=O)NC(=O)[C@H](C)NC(=O)[C@H](CCCNC(=N)N)NC(=O)[C@H](CCCNC(=N)N)NC(=O)[C@H](CO)NC(=O)[C@H](CC(=O)O)NC(=O)[C@H](CC(C)C)NC(=O)[C@H](Cc1ccc(O)cc1)NC(=O)[C@H](CCCCN)NC(=O)[C@H](CO)NC(=O)[C@H](Cc1ccc(O)cc1)NC(=O)[C@H](CC(=O)O)NC(=O)[C@H](CO)NC(=O)[C@@H](NC(=O)[C@H](Cc1ccccc1)NC(=O)[C@@H](NC(=O)CNC(=O)[C@H](CCC(N)=O)NC(=O)[C@H](CO)NC(=O)[C@@H](N)Cc1c[nH]cn1)[C@@H](C)O)[C@@H](C)O)C(C)C)C(N)=O)C(=O)O` [g747], the EC50 on Human GLP1R (setting [1]) amounted to 3.16 nM; at Human GIPr (setting [2]) it was 1040 nM; at Human GlucR (setting [3]), 0.0942 nM.

Consider `CCCCCCCCCCCCCCCC(=O)N[C@@H](CCC(=O)NCCCC[C@H](NC(=O)[C@H](CO)NC(=O)[C@H](CC(=O)O)NC(=O)[C@H](CC(C)C)NC(=O)[C@H](Cc1ccc(O)cc1)NC(=O)[C@H](CCCCN)NC(=O)[C@H](CO)NC(=O)[C@H](Cc1ccc(O)cc1)NC(=O)[C@H](CC(=O)O)NC(=O)[C@H](CO)NC(=O)[C@@H](NC(=O)[C@H](Cc1ccccc1)NC(=O)[C@@H](NC(=O)CNC(=O)[C@H](CCC(N)=O)NC(=O)[C@H](CO)NC(=O)[C@@H](N)Cc1c[nH]cn1)[C@@H](C)O)[C@@H](C)O)C(=O)N[C@@H](CCCNC(=N)N)C(=O)N[C@@H](C)C(=O)N[C@@H](CCCNC(=N)N)C(=O)N[C@@H](CC(=O)O)C(=O)N[C@@H](Cc1ccccc1)C(=O)N[C@H](C(=O)N[C@@H](CCC(=O)O)C(=O)N[C@@H](Cc1c[nH]c2ccccc12)C(=O)N[C@@H](CC(C)C)C(=O)N[C@H](C(=O)N[C@@H](C)C(=O)NCC(=O)NCC(N)=O)C(C)C)C(C)C)C(=O)O` [g766] (H-HSQGTFTSDYSKYLDSK([γGlu-Palmitoyl])RARDFVEWLVAGG-NH2; N-terminus assumed), for which the EC50 on Human GLP1R (setting [1]) came to 0.0702 nM; on Human GIPr (setting [2]), 47.9 nM; on Human GlucR (setting [3]) it was 0.00465 nM.

For `CCCCCCCCCCCCCCCC(=O)NCCCCCC(=O)NCCCC[C@H](NC(=O)[C@H](CO)NC(=O)[C@H](CC(=O)O)NC(=O)[C@H](CC(C)C)NC(=O)[C@H](Cc1ccc(O)cc1)NC(=O)[C@H](CCC(=O)O)NC(=O)[C@H](CO)NC(=O)[C@H](Cc1ccc(O)cc1)NC(=O)[C@H](CC(=O)O)NC(=O)[C@H](CO)NC(=O)[C@@H](NC(=O)[C@H](Cc1ccccc1)NC(=O)[C@@H](NC(=O)CNC(=O)[C@H](CCC(N)=O)NC(=O)[C@H](CO)NC(=O)[C@@H](N)Cc1c[nH]cn1)[C@@H](C)O)[C@@H](C)O)C(=O)N[C@@H](CCCNC(=N)N)C(=O)N[C@@H](C)C(=O)N[C@@H](CCCNC(=N)N)C(=O)N[C@@H](CC(=O)O)C(=O)N[C@@H](Cc1ccccc1)C(=O)N[C@H](C(=O)N[C@@H](CCC(=O)O)C(=O)N[C@@H](Cc1c[nH]c2ccccc12)C(=O)N[C@@H](CC(C)C)C(=O)N[C@@H](CCC(=O)O)C(=O)N[C@@H](CCCNC(=N)N)C(=O)NCC(=O)NCC(N)=O)C(C)C` [g771] (H-HSQGTFTSDYSEYLDSK([Ahx-Palmitoyl])RARDFVEWLERGG-NH2; N-terminus assumed), the EC50 is 0.0175 nM at Human GLP1R (setting [1]), 37.1 nM on Human GIPr (setting [2]) and 0.00551 nM on Human GlucR (setting [3]).

For `CCCCCCCCCCCCCCCC(=O)N[C@@H](CCC(=O)NCCCC[C@H](NC(=O)[C@H](CO)NC(=O)[C@H](CC(=O)O)NC(=O)[C@H](CC(C)C)NC(=O)[C@H](Cc1ccc(O)cc1)NC(=O)[C@H](CCC(=O)O)NC(=O)[C@H](CO)NC(=O)[C@H](Cc1ccc(O)cc1)NC(=O)[C@H](CC(=O)O)NC(=O)[C@H](CO)NC(=O)[C@@H](NC(=O)[C@H](Cc1ccccc1)NC(=O)[C@@H](NC(=O)CNC(=O)[C@H](CCC(N)=O)NC(=O)[C@H](CO)NC(=O)[C@@H](N)Cc1c[nH]cn1)[C@@H](C)O)[C@@H](C)O)C(=O)N[C@@H](CCCNC(=N)N)C(=O)N[C@@H](C)C(=O)N[C@@H](CCCNC(=N)N)C(=O)N[C@@H](CC(=O)O)C(=O)N[C@@H](Cc1ccccc1)C(=O)N[C@H](C(=O)N[C@@H](C)C(=O)N[C@@H](Cc1c[nH]c2ccccc12)C(=O)N[C@@H](CC(C)C)C(=O)N[C@@H](CCC(=O)O)C(=O)N[C@@H](CCCNC(=N)N)C(=O)NCC(=O)NCC(N)=O)C(C)C)C(=O)O` [g772] (H-HSQGTFTSDYSEYLDSK([γGlu-Palmitoyl])RARDFVAWLERGG-NH2; N-terminus assumed), the half-maximal effective concentration (EC50) at Human GLP1R (setting [1]) was found to be 0.292 nM; at Human GIPr (setting [2]), 1540 nM; at Human GlucR (setting [3]), 0.184 nM.
